From patent publication US12060360B2, “Lysyl oxidase inhibitors” (The Institute of Cancer Research: Royal Cancer Hospital, priority 2017, dated 2024)

Assays:
[1] = test system: SW620 human colorectal carcinoma cells (mutant RAS); test: SW620 xenografts, primary tumour volume T/C; assay type: in vivo; conditions: 200 mg/kg po qd; ratio of average tumour volume treated/vehicle control; p<0.05
Procedure: (§1) All procedures involving animals were approved by the Animal Welfare and Ethical Review Body of the Institute of Cancer Research and Cancer Research UK Manchester Institute in accordance with National Home Office regulations under the Animals (Scientific Procedures) Act 1986 and according to the guidelines of the Committee of the National Cancer Research Institute Tumour size was determined by caliper measurements of tumour length, width and depth and volume was calculated as volume=0.5236×length×width×depth (mm).
SW620 xenografts: NCr mice were inoculated subcutaneously in the right flank with 5×10^6 SW620 cells at 100 ul suspension per animal. Groups of 7-8 mice were assigned to treatment following stratified allocation of tumour volumes with a median size of circa 100 mm^3. […] Tumours and weights are measured twice weekly using calipers. […] Frozen samples are kept at −80 degree centigrade until being analysed and the fixed samples stained according to the desired marker.
For therapeutic efficacy assessment, the ratio of average tumour volume between compound treated and vehicle control treated (T/C) is calculated. […] The efficacy of LOX inhibitors described in this invention, as measured by T/C in a pancreatic cancer model, a colorectal cancer model and a breast cancer model is shown in Table 2 and is significant (p<0.05) for all the data presented.

[2] = test system: PDAC TRP53R172H (p53 mut) cells (mouse pancreatic carcinoma); test: PDAC allografts, primary tumour volume T/C; assay type: in vivo; conditions: 200 mg/kg po qd; ratio of average tumour volume treated/vehicle control; p<0.05
Procedure: as §1
PDAC allografts: CD1 nu/nu female mice at 6 weeks of age were inoculated subcutaneously in the right flank with 2×10^6 PDAC TRP53R172H (p53 mut) cells at 100 ul suspension per animal. In some examples, the oral dosing by metal gavage commences one day after cells inoculation, at 0.2 ml/20 g bodyweight per animal once daily for 2-4 weeks, with compound dissolved in 5.25% tween20/saline or 5% DMSO/water. In other examples, groups of 7-8 mice were assigned to treatment following stratified allocation of tumour volumes with a median size of circa 100 mm^3. […] Control animals received a similar dosage of vehicle (5.25% tween20/saline). Tumours and weights are measured twice weekly using calipers. At the end of the study the animals are culled, and samples taken, fixed or snap frozen in liquid nitrogen. Frozen samples kept at −80 degree centigrade until being analysed and the fixed samples stained according to the desired marker.
For therapeutic efficacy assessment, the ratio of average tumour volume between compound treated and vehicle control treated (T/C) is calculated. Reduction in tumour volume in the compound treated group compared to vehicle-treated control group results in T/C<1. The efficacy of LOX inhibitors described in this invention, as measured by T/C in a pancreatic cancer model, a colorectal cancer model and a breast cancer model is shown in Table 2 and is significant (p<0.05) for all the data presented.

`CCOc1ccc(N2C[C@H]3CN(CCCC#N)C[C@@H]2C(C)(C)C3)cc1` [Example 42, 4-((1R,5S)-6-(4-ethoxyphenyl)-9,9-dimethyl-3,6-diazabicyclo[3.2.2]nonan-3-yl)butanenitrile] was tested, and the “T/C SW620 human colorectal carcinoma cells (mutant RAS) - primary tumour” value [1] was 0.54 and the “T/C PDAC R172H (p53 mut) (mouse pancreatic carcinoma) - primary tumour” value [2] was 0.44.
